Laboratory results as given in US20020156129A1, “Method of treating pruritus and a pharmaceutical composition for the method” (priority 2001, published 2002).

How the values were obtained:
[1] = system: ICR mice, cutaneous barrier function disrupted by acetone/diethylether and water; assay: Scratching action of mice with disrupted cutaneous barrier function, subcutaneous administration (Example 1); assay type: in vivo, mouse; settings: subcutaneous 10 mg/kg at barrier-disrupted site, 15 min before recording; scratching counted for 2 hours; mean ± standard error, 8 mice
Procedure: A number of scratching action of 8 mice per 2 hours is shown by the average percentage±standard error based on the average of the control group (100%). “S” represents the control group which received saline, “L” represents L-NAME administrated group and “D” represents D-NAME administrated group.
The evaluation of the therapeutic effects of the pharmaceutical composition of the present invention may be conducted by using the small test animals produced by the method developed by the inventors, such as mice of which the cutaneous barrier function have been disrupted. Such animals may be produced according to the following procedure: An noninflammation dermal lesion caused by the disruption of cutaneous barrier function may be induced by degreasing the small test animals by applying an organic solvent to the glabrous skin of the animals and then treating with water. […] For example, the hydration of the stratum corneum can be determined by a technique of conductimetry, determination of electrostatic capacity or FT-IR method. Transepidermal water loss can be non-invasively determined with an electric measuring instrument or the like so as not to influence the scratching action. […]

NC mouse = settings: administration of NOS inhibitor; cited from earlier work

Row | Compound | number of the scratching action relative to saline control group (100%) [1] [%] | effect on scratching action (NC mouse)
1 | COC(=O)[C@H](N)CCCN=C(N)N[N+](=O)[O-] [D-NAME, Nw-nitro-D-arginine methyl ester] | 90.9±15.2 | –
2 | COC(=O)[C@@H](N)CCCNC(=N)N[N+](=O)[O-] [L-NAME, Nw-nitro-L-arginine methyl ester] | 27.9±6.4 | scratching action can be suppressed
